# Measured values as given in patent publication US10519134B2, “Pyrazole compounds and methods of making and using same” (Lundbeck La Jolla Research Center, Inc., priority 2015, dated 2019).
# How the values were obtained:
# [1] = target: T1, MAGL (Mus musculus, UniProt O35678); assay: In vitro competitive activity-based protein profiling (mouse), MAGL gel band; format: biochemical; conditions: for inhibition at 1 µM: read-out: MAGL % inh. 1 μM; for IC50: mouse
# T1 construct: Proteomes (mouse brain membrane fraction or cell lysates); from tissue; host or cells: mouse brain membrane fraction (or cell lysates)
# T1 sequence (O35678 1-303): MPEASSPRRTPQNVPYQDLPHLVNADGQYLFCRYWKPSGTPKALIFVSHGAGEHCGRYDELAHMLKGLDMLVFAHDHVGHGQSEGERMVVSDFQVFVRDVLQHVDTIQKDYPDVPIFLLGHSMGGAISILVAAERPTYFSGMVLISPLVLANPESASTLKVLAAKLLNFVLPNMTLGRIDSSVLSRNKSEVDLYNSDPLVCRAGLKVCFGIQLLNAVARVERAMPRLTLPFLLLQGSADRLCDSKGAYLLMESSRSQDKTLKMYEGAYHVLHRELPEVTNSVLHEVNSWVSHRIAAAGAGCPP
# How it was run: (§1)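 Competitive ABPP: inhibitors at varying concentrations were given 30 min at 37 °C with mouse brain membranes or cell lysates (1.0 mg/mL total protein) before 30 min labelling by FP-Rh or HT-01 (stock 50 μM in DMSO). Residual hydrolase activity read as in-gel fluorescence of MAGL and FAAH bands.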
# [2] = target: T2, FAAH (Mus musculus, UniProt O08914); assay: In vitro competitive activity-based protein profiling (mouse), FAAH gel band; format: biochemical; conditions: for inhibition at 1 µM: read-out: FAAH % inh. 1 μM; for IC50: mouse
# T2 construct: Proteomes (mouse brain membrane fraction or cell lysates); from tissue; host or cells: mouse brain membrane fraction (or cell lysates)
# T2 sequence (O08914 1-579): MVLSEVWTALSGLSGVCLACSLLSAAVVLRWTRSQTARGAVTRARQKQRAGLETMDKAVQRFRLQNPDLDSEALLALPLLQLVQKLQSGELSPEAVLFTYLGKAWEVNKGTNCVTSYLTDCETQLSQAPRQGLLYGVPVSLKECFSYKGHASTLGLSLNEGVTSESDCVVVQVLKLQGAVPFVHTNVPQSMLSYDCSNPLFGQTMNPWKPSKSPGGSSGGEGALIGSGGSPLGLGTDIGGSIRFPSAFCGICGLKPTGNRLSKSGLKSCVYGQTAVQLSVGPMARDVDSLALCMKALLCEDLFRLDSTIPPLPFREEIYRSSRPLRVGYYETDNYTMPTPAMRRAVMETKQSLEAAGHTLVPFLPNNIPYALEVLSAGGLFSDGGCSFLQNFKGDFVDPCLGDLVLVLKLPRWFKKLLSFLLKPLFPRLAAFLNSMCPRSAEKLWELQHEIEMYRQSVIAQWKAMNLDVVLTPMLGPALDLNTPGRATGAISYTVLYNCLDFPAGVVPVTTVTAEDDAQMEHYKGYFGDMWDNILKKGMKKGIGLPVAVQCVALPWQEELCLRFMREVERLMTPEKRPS
# How it was run: as §1
# [3] = target: T3, MAGL (Homo sapiens, UniProt Q99685); assay: In vitro competitive activity-based protein profiling (human), MAGL gel band; format: biochemical
# T3 construct: Proteomes (human prefrontal cortex or cell membrane fractions); from tissue; host or cells: human prefrontal cortex (or cell membrane fractions)
# T3 sequence (Q99685 1-303): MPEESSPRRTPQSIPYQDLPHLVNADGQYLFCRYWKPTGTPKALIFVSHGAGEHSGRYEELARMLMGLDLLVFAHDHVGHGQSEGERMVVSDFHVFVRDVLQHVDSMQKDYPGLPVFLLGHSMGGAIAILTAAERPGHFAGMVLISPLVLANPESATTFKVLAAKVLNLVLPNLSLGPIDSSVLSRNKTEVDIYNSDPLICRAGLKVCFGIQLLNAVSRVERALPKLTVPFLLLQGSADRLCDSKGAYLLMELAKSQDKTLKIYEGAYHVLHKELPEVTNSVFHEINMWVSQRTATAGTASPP
# How it was run: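 Human prefrontal cortex or cell membrane proteomes (1.0-2.0 mg/mL protein) preincubated with inhibitors 30 min at 37° C, then labelled with FP-Rh or JW912 probe 30 min at room temperature. Residual MAGL activity read as fluorescent gel-band intensity after SDS-PAGE.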
# [4] = target: T1, MAGL; assay: Mouse brain proteomes from inhibitor treated mice (oral gavage, sacrificed 4 h after administration); format: in vivo; conditions: read-out: MAGL % inh. 5 mg/kg
# How it was run: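 Wild-type C57Bl/6J mice got compound by oral gavage in polyethylene glycol vehicle. Brain proteomes were prepared 4 h after dosing and analyzed for serine hydrolase activity.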
SMILES,inhibition at 1 µM [1] [%],inhibition at 1 µM [2] [%],IC50 [3] [nM],inhibition at 5 mg/kg [4] [%],IC50 [1] [nM],IC50 [2] [nM]
"CC(=O)N1CC2CCC(C1)N2c1cc(C(F)(F)F)ccc1CN1CCN(C(=O)n2ccc(NS(C)(=O)=O)n2)CC1 [Example 207, N-(1-(4-(2-(3-acetyl-3,8-diazabicyclo[3.2.1]octan-8-yl)-4-(trifluoromethyl)benzyl)piperazine-1-carbonyl)-1H-pyrazol-3-yl) methanesulfonamide]",≥ 75,0 to 25,≤ 100,0 to 25,–,–
"CS(=O)(=O)Nc1ccn(C(=O)N2CCN(Cc3ccc(Cl)c(-c4nccs4)c3)CC2)n1 [Example 221, N-(1-(4-(4-chloro-3-(thiazol-2-yl)benzyl)piperazine-1-carbonyl)-1H-pyrazol-3-yl) methanesulfonamide]",≥ 75,0 to 25,≤ 100,0 to 25,–,–
"CS(=O)(=O)Nc1ccn(C(=O)N2CCN(Cc3ccc(C(F)(F)F)cc3-c3nncs3)CC2)n1 [Example 114, N-(1-(4-(2-(1,3,4-thiadiazol-2-yl)-4-(trifluoromethyl)benzyl)piperazine-1-carbonyl)-1H-pyrazol-3-yl)methanesulfonamide]",≥ 75,0 to 25,≤ 100,0 to 25,–,–
"CS(=O)(=O)Nc1ccn(C(=O)N2CCN(Cc3ccc(Cl)c(N4CCN(C5CC5)CC4)c3)CC2)n1 [Example 202, N-(1-(4-(4-chloro-3-(4-cyclopropylpiperazin-1-yl)benzyl)piperazine-1-carbonyl)-1H-pyrazol-3-yl) methanesulfonamide]",≥ 75,0 to 25,≤ 100,0 to 25,–,–
"[2H]C([2H])([2H])c1cc(CN2CCCC23CCN(C(=O)n2ccc(NC(C)=O)n2)CC3)ccc1Cl [Example 294, N-(1-(1-(4-chloro-3-(methyl-d3)benzyl)-1,8-diazaspiro[4.5]decane-8-carbonyl)-1H-pyrazol-3-yl)acetamide]",≥ 75,0 to 25,≤ 100,≥ 75,–,–
"CS(=O)(=O)Nc1ccn(C(=O)N2CCN(Cc3ccc(Cl)c(N4CC5COCC5C4)c3)CC2)n1 (stereo not shown) [Example 203, N-(1-(4-(4-chloro-3-(tetrahydro-1H-furo[3,4-c]pyrrol-5(3H)-yl)benzyl)piperazine-1-carbonyl)-1H-pyrazol-3-yl) methanesulfonamide]",≥ 75,0 to 25,≤ 100,0 to 25,≤ 100,1000 to 10000
"CC(=O)Nc1ccn(C(=O)N2CCN(Cc3ccc(C(F)(F)F)cc3N3CCC4(CCOCC4)C3)CC2)n1 [Example 45, N-(1-(4-(2-(8-oxa-2-azaspiro[4.5]decan-2-yl)-4-(trifluoromethyl)benzyl)piperazine-1-carbonyl)-1H-pyrazol-3-yl)acetamide]",≥ 75,0 to 25,100 to 1000,0 to 25,≤ 100,1000 to 10000
"CS(=O)(=O)Nc1ccn(C(=O)N2CCN(Cc3ccc(Cl)c(-c4ccc(C(F)(F)F)nc4)c3)CC2)n1 [Example 233, N-(1-(4-(4-chloro-3-(6-(trifluoromethyl)pyridin-3-yl)benzyl)piperazine-1-carbonyl)-1H-pyrazol-3-yl) methanesulfonamide]",≥ 75,0 to 25,≤ 100,25 to 50,–,–
"CS(=O)(=O)Nc1ccn(C(=O)N2CCN(Cc3cc(Cl)ccc3N3CCOCC3)CC2)n1 [Example 123, N-(1-(4-(5-chloro-2-morpholinobenzyl)piperazine-1-carbonyl)-1H-pyrazol-3-yl) methanesulfonamide]",≥ 75,0 to 25,≤ 100,25 to 50,100 to 1000,1000 to 10000
"CS(=O)(=O)Nc1ccn(C(=O)N2CCN(Cc3ccc(N4CCCC4)c(C(F)(F)F)c3)CC2)n1 [Example 152, N-(1-(4-(4-(pyrrolidin-1-yl)-3-(trifluoromethyl)benzyl)piperazine-1-carbonyl)-1H-pyrazol-3-yl) methanesulfonamide]",≥ 75,0 to 25,≤ 100,≥ 75,≤ 100,1000 to 10000
"CN(C)C(=O)C1CCN(c2cc(C(F)(F)F)ccc2CN2CCN(C(=O)n3ccc(NS(C)(=O)=O)n3)CC2)CC1 [Example 231, N,N-dimethyl-1-(2-((4-(3-(methylsulfonamido)-1H-pyrazole-1-carbonyl)piperazin-1-yl)methyl)-5-(trifluoromethyl)phenyl)piperidine-4-carboxamide]",≥ 75,0 to 25,≤ 100,–,–,–

# More lines, now with the values ahead:
inhibition at 1 µM [1] [%],inhibition at 1 µM [2] [%],IC50 [3] [nM],inhibition at 5 mg/kg [4] [%],IC50 [1] [nM],IC50 [2] [nM],SMILES
≥ 75,0 to 25,≤ 100,25 to 50,–,–,"CS(=O)(=O)Nc1ccn(C(=O)N2CCC3(CCCN3Cc3ccc(C(F)(F)F)cc3N3CC4COCC4C3)CC2)n1 (stereo not shown) [Example 199, N-(1-(1-(2-(tetrahydro-1H-furo[3,4-c]pyrrol-5(3H)-yl)-4-(trifluoromethyl)benzyl)-1,8-diazaspiro[4.5]decane-8-carbonyl)-1H-pyrazol-3-yl) methanesulfonamide]"
≥ 75,0 to 25,≤ 100,≥ 75,–,–,"CS(=O)(=O)Nc1ccn(C(=O)N2CCN(Cc3ccc(C(F)(F)F)cc3N3CCC3)CC2)n1 [Example 175, N-(1-(4-(2-(azetidin-1-yl)-4-(trifluoromethyl)benzyl)piperazine-1-carbonyl)-1H-pyrazol-3-yl) methanesulfonamide]"
≥ 75,0 to 25,≤ 100,≥ 75,–,–,"CS(=O)(=O)Nc1ccn(C(=O)N2CCN(Cc3ccc(Cl)c(N4CCC(F)CC4)c3)CC2)n1 [Example 201, N-(1-(4-(4-chloro-3-(4-fluoropiperidin-1-yl)benzyl)piperazine-1-carbonyl)-1H-pyrazol-3-yl) methanesulfonamide]"
≥ 75,0 to 25,≤ 100,≥ 75,–,–,"CC1CCCN1c1cc(CN2CCN(C(=O)n3ccc(NS(C)(=O)=O)n3)CC2)ccc1Cl (stereo not shown) [Example 200, N-(1-(4-(4-chloro-3-(2-methylpyrrolidin-1-yl)benzyl)piperazine-1-carbonyl)-1H-pyrazol-3-yl) methanesulfonamide]"
≥ 75,0 to 25,≤ 100,0 to 25,≤ 100,1000 to 10000,"CS(=O)(=O)Nc1ccn(C(=O)N2CCN(Cc3cccc(Cl)c3N3CC4CCC(C3)O4)CC2)n1 [Example 288, N-(1-(4-(2-(8-oxa-3-azabicyclo[3.2.1]octan-3-yl)-3-chlorobenzyl)piperazine-1-carbonyl)-1H-pyrazol-3-yl) methanesulfonamide]"
≥ 75,0 to 25,≤ 100,0 to 25,≤ 100,1000 to 10000,"CS(=O)(=O)Nc1ccn(C(=O)N2CCC3(CCCN3Cc3ccc(C(F)(F)F)cc3N3CCCC3)CC2)n1 [Example 125, N-(1-(1-(2-(pyrrolidin-1-yl)-4-(trifluoromethyl)benzyl)-1,8-diazaspiro[4.5]decane-8-carbonyl)-1H-pyrazol-3-yl) methanesulfonamide]"
